Experimental findings from patent US20150322067A1, “NITROGEN CONTAINING COMPOUNDS AND THEIR USE” (priority 2011, published 2015) are described below.

Like-named read-outs stand apart in the source and are kept apart here. A value given as a limit tells only on which side of the number the result lay.

Test in all cases: Agar dilution MIC (CLSI), beta-lactam with or without beta-lactamase inhibitor
Assay type in all cases: cell-based

Assay [1] concerns A. baumanni NCTC 13304. Particulars: Class D ESBL strain; for MIC of Ceftazidime + inhibitor: Ceftazidime in combination with inhibitor at 4 mcg/ml; for MIC of Meropenem + inhibitor: Meropenem in combination with inhibitor at 4 mcg/ml. The method, then: (§1) The biological activity of representative compounds of the invention against various bacterial strains (in combination with another antibacterial agent) was investigated. In a typical study, overnight grown bacterial cultures were diluted appropriately and inoculated on the agar media containing doubling dilutions of the antibiotics. Observation for growth or no growth was performed after 16-20 hours of incubation at 35±2° C. in ambient air. The overall procedure was performed as per Clinical and Laboratory Standards Institute (CLSI) recommendations (Clinical and Laboratory Standards Institute (CLSI), performance Standards for Antimicrobial Susceptibility Testing, 20th Informational Supplement, M 100-S20, Volume 30, No. 1, 2010). Table 1 details potencies of ceftazidime in combination of representative compound according to the invention (compound of formula (I) wherein M is sodium) against various MDR (Multi Drug Resistant) Gram-negative strains producing Class A, C and D beta-lactamase enzymes. The activities are expressed as MICs (mcg/ml). For comparison, the activity of various other known beta-lactamase inhibitors such as clavulanic acid, tazobactam, MK-7655, and NXL-104 are also provided.
(§2) Table 2 details data corresponding to a combination of Meropenem with a compound of Formula (I), wherein M is sodium, against Class D ESBL producing strains. Class D ESBLs producing pathogens that confer a high degree of resistance to carbapenems are a therapeutic problem in the clinical settings since extremely limited treatment options are available to treat them.

For assay [2], the system named is A. baumanni NCTC 13305. Particulars: Class D ESBL strain; for MIC of Ceftazidime + inhibitor: Ceftazidime in combination with inhibitor at 4 mcg/ml; for MIC of Meropenem + inhibitor: Meropenem in combination with inhibitor at 4 mcg/ml. The method, then:
as §1, §2

In assay [3] the test system is A. baumanni NCTC 13301. Conditions: Class D ESBL strain; for MIC of Ceftazidime + inhibitor: Ceftazidime in combination with inhibitor at 4 mcg/ml; for MIC of Meropenem + inhibitor: Meropenem in combination with inhibitor at 4 mcg/ml. The method, then:
as §1, §2

The test system of assay [4] is K. pneumoniae ATCC 700603. Conditions: Class A ESBL strain; for MIC of Ceftazidime + inhibitor: Ceftazidime in combination with inhibitor at 4 mcg/ml. As for the experimental part:
as §1

The subject of assay [5] is E. coli NCTC 13352. Conditions: Class A ESBL strain; for MIC of Ceftazidime + inhibitor: Ceftazidime in combination with inhibitor at 4 mcg/ml. As for the experimental part:
as §1

In assay [6] the test system is E. coli 7 MP. Conditions: Class C ESBL strain; for MIC of Ceftazidime + inhibitor: Ceftazidime in combination with inhibitor at 4 mcg/ml. The method, then: as §1
The test system of assay [7] is E. coli B 89. Conditions: Class C ESBL strain; for MIC of Ceftazidime + inhibitor: Ceftazidime in combination with inhibitor at 4 mcg/ml. The method, then: as §1
Assay [8] relates to E. coli NCTC 13351. Particulars: Class A ESBL strain; for MIC of Ceftazidime + inhibitor: Ceftazidime in combination with inhibitor at 4 mcg/ml. The method, then: as §1
Assay [9] concerns E. coli M 50. Particulars: Class C ESBL strain; for MIC of Ceftazidime + inhibitor: Ceftazidime in combination with inhibitor at 4 mcg/ml. As for the experimental part:
as §1

[10] abbreviates: Ceftazidime alone, read-out: MIC of Ceftazidime, Control.
The mark [11] stands for this setting: Meropenem alone, read-out: MIC of Meropenem, Control.

On to `N#C[C@@H]1CC[C@@H]2CN1C(=O)N2OS(=O)(=O)[O-].[Na+]` [Sodium salt of trans-7-oxo-6-(sulphoxy)-1,6-diazabicyclo[3.2.1]-octane-2-carbonitrile], for which the “MIC of Ceftazidime + inhibitor” value in assay [1] worked out at 32 µg/mL; in [2] it was 16 µg/mL; in assay [3], 32 µg/mL; in [4], 0.5 µg/mL; in [5], 0.5 µg/mL; in assay [6], 2 µg/mL. The “MIC of Ceftazidime + inhibitor” value in assay [7] was 1 µg/mL; in assay [8], 0.5 µg/mL; in assay [9], 1 µg/mL. The “MIC of Meropenem + inhibitor” value in assay [1] amounted to 2 µg/mL; in assay [2] it was 2 µg/mL; in assay [3], 4 µg/mL.
In the case of `O=C(NC1CCNCC1)[C@@H]1CC[C@@H]2CN1C(=O)N2OS(=O)(=O)O` [MK 7655], the “MIC of Ceftazidime + inhibitor” value was 32 µg/mL in [1]; 16 µg/mL in [2]; more than 32 µg/mL in [3]; 2 µg/mL in [4]; 8 µg/mL in assay [5]; 8 µg/mL in [6]. Besides, the “MIC of Ceftazidime + inhibitor” value is 4 µg/mL in assay [7], 2 µg/mL in assay [8] and 2 µg/mL in [9]. Also, the “MIC of Meropenem + inhibitor” value was 32 µg/mL in assay [1], 8 µg/mL in assay [2] and 32 µg/mL in assay [3].
`CC(C)(O/N=C(\C(=O)N[C@@H]1C(=O)N2C(C(=O)[O-])=C(C[n+]3ccccc3)CS[C@H]12)c1csc(N)n1)C(=O)O` [Ceftazidime]: the MIC – broadly, the smallest concentration in the dilution series that meets the test's criterion for growth inhibition – was more than 32 µg/mL in assay [1] (setting [10]); 16 µg/mL in [2] (setting [10]); more than 32 µg/mL in assay [3] (setting [10]); 32 µg/mL in assay [4] (Klebsiella pneumoniae, ATCC700603, Ceftazidime alone, read-out: MIC of Ceftazidime, Control); more than 32 µg/mL in assay [5] (Escherichia coli, NCTC13352, Ceftazidime alone, read-out: MIC of Ceftazidime, Control); more than 32 µg/mL in assay [6] (Escherichia coli, 7MP, Ceftazidime alone, read-out: MIC of Ceftazidime, Control). Further, the minimal inhibitory concentration (MIC) in assay [7] (Escherichia coli, B89, Ceftazidime alone, read-out: MIC of Ceftazidime, Control) was more than 32 µg/mL; in assay [8] (Escherichia coli, NCTC13351, Ceftazidime alone, read-out: MIC of Ceftazidime, Control), 32 µg/mL; in assay [9] (Escherichia coli, M50, Ceftazidime alone, read-out: MIC of Ceftazidime, Control), more than 32 µg/mL.
As to `O=C(O)[C@H]1/C(=C/CO)O[C@@H]2CC(=O)N21` [Clavulanic acid, clavulanic acid], the “MIC of Ceftazidime + inhibitor” value is more than 32 µg/mL in assay [1]; 16 µg/mL in assay [2]; more than 32 µg/mL in assay [3]; 0.5 µg/mL in [4]; 0.5 µg/mL in assay [5]; more than 32 µg/mL in assay [6]. Besides, the entries for the “MIC of Ceftazidime + inhibitor” value in [7], in assay [8] and in assay [9] were more than 32 µg/mL, 0.5 µg/mL and more than 32 µg/mL, respectively. Moreover, the “MIC of Meropenem + inhibitor” value in [1] was found to be 32 µg/mL; in assay [2], 8 µg/mL; in assay [3] it was 32 µg/mL.
As for `NC(=O)[C@@H]1CC[C@@H]2CN1C(=O)N2OS(=O)(=O)O` [NXL104], the “MIC of Ceftazidime + inhibitor” value in [1] is 32 µg/mL; in assay [2] it was 16 µg/mL; in assay [3], more than 32 µg/mL; in assay [4] it was 0.5 µg/mL; in [5], 0.5 µg/mL; in assay [6], 4 µg/mL. Besides, the “MIC of Ceftazidime + inhibitor” value in [7] is 1 µg/mL; in [8], 0.5 µg/mL; in [9] it was 1 µg/mL. Besides, the “MIC of Meropenem + inhibitor” value was 16 µg/mL in assay [1], 8 µg/mL in assay [2] and 16 µg/mL in assay [3].
In the case of `C[C@]1(Cn2ccnn2)[C@H](C(=O)O)N2C(=O)C[C@H]2S1(=O)=O` [Tazobactam, tazobactam], the “MIC of Ceftazidime + inhibitor” value in assay [1] is more than 32 µg/mL; in assay [2], 16 µg/mL; in [3], more than 32 µg/mL; in assay [4], 1 µg/mL; in assay [5], 1 µg/mL; in assay [6], more than 32 µg/mL. Besides, the “MIC of Ceftazidime + inhibitor” value is more than 32 µg/mL in [7], 0.5 µg/mL in assay [8] and more than 32 µg/mL in assay [9]. In addition, the “MIC of Meropenem + inhibitor” value amounted to 32 µg/mL in [1], 8 µg/mL in [2] and 32 µg/mL in [3].
Take `C[C@@H](O)[C@H]1C(=O)N2C(C(=O)O)=C(S[C@@H]3CN[C@H](C(=O)N(C)C)C3)[C@H](C)[C@H]12` [Meropenem]: the minimum inhibitory concentration (MIC) in assay [1] (setting [11]) was 32 µg/mL; in assay [2] (setting [11]), 8 µg/mL; in assay [3] (setting [11]), 32 µg/mL.
